Measured values reported in US20150164762A1, “USE OF ETHANOLAMINE PHOSPHATE” (priority 2012, published 2015).

System: BEAS-2B
Assay: Comprehensive gene expression analysis with Whole Human Genome DNA microarray after EP treatment
Assay type: cell-based
Method: Cells of the established normal human airway epithelial cell line BEAS-2B were used in the experiment. These cells were expansively cultured in 10% FBS RPMI-1640, and seeded at a density of 1×10^5/cm^2 on a 24-well plate. After 24 hours 0.1% FBS RPMI-1640 was substituted, and EP was administered to a final concentration of 0 or 1 mM (n=4). After 24 hours, the cells were used as the DNA microarray samples. RNA was extracted using a QIAGEN RNeasy Mini Kit. The DNA microarray test was performed using a Whole Human Genome DNA microarray 4×44K (Agilent), and the necessary labeling reagents and the like for the DNA microarray test were all from Agilent. The DNA microarray test data were analyzed statistically with GeneSpring (Agilent) dedicated analysis software, and gene function analysis (Gene Ontology (GO) analysis) was performed based on differential expression. The purpose of the GO analysis is to determine stochastically the degree to which gene sets with statistically significant differential expression correspond to known functional classification gene sets. […] The p-value is calculated according to the following formula.

[1] = probe A_23_P306987, 1 mM EP, 24 h
[2] = probe A_23_P315815, NM_004495, EP vs control
[3] = probe A_23_P326913, BC019095, EP vs control
[4] = probe A_23_P336611, 1 mM EP, 24 h
[5] = probe A_23_P337242, 1 mM EP, 24 h
[6] = probe A_23_P344421, 1 mM EP, 24 h
[7] = probe A_23_P346311, 1 mM EP, 24 h
[8] = probe A_23_P358944, 1 mM EP, 24 h
[9] = probe A_23_P360777, NM_013960, EP vs control
[10] = probe A_23_P360797, 1 mM EP, 24 h
[11] = probe A_23_P371727, 1 mM EP, 24 h
[12] = probe A_23_P373521, 1 mM EP, 24 h
[13] = probe A_23_P382775, 1 mM EP, 24 h
[14] = probe A_23_P383278, NM_023078, EP vs control
[15] = probe A_23_P404887, 1 mM EP, 24 h
[16] = probe A_23_P407012, NM_172210, EP vs control
[17] = probe A_23_P411296, 1 mM EP, 24 h
[18] = probe A_23_P426305, NM_003734, EP vs control
[19] = probe A_23_P500034, 1 mM EP, 24 h
[20] = probe A_23_P502553, 1 mM EP, 24 h
[21] = probe A_23_P2094013, 1 mM EP, 24 h
[22] = probe A_24_P4661, 1 mM EP, 24 h
[23] = probe A_24_P12401, NM_001025366, EP vs control
[24] = probe A_24_P18105, NM_032466, EP vs control
[25] = probe A_24_P38363, 1 mM EP, 24 h
[26] = probe A_24_P60930, NM_006129, EP vs control
[27] = probe A_24_P83815, 1 mM EP, 24 h
[28] = probe A_24_P122921, 1 mM EP, 24 h
[29] = probe A_24_P135322, 1 mM EP, 24 h
[30] = probe A_24_P139152, 1 mM EP, 24 h
[31] = probe A_24_P139993, 1 mM EP, 24 h
[32] = probe A_24_P175519, NM_003329, EP vs control
[33] = probe A_24_P179400, NM_001025370, EP vs control
[34] = probe A_24_P193911, 1 mM EP, 24 h
[35] = probe A_24_P200000, NM_182915, EP vs control
[36] = probe A_24_P207479, 1 mM EP, 24 h
[37] = probe A_24_P209047, NM_000879, EP vs control

NCCOP(=O)(O)O [EP, Ethanolamine phosphate]
SOX7 expression R: Ratio to control [1]: 0.338 times
SOX7 expression log2 [ratio] [1]: −1.568
NRG1 gene expression, R* ratio to control [2]: 0.666 times
NRG1 gene expression, log2 [ratio] [2]: −0.586
PRUNE2 gene expression, R* ratio to control [3]: 1.441 times
PRUNE2 gene expression, log2 [ratio] [3]: 0.527
APAF1 expression R*: Ratio to control [4]: 0.420 times
APAF1 expression log2 [ratio] [4]: −1.253
TGFBR2 expression R*: Ratio to control [5]: 1.630 times
TGFBR2 expression log2 [ratio] [5]: 0.705
ROBO4 expression R*: Ratio to control [6]: 1.633 times
ROBO4 expression log2 [ratio] [6]: 0.707
BAX expression R*: Ratio to control [7]: 0.511 times
BAX expression log2 [ratio] [7]: −0.969
PML expression R: Ratio to control [8]: 0.586 times
PML expression log2 [ratio] [8]: −0.770
NRG1 gene expression, R* ratio to control [9]: 0.651 times
NRG1 gene expression, log2 [ratio] [9]: −0.620
NTF3 expression R: Ratio to control [10]: 0.492 times
NTF3 expression log2 [ratio] [10]: −1.024
CKS2 expression R*: Ratio to control [11]: 1.510 times
CKS2 expression log2 [ratio] [11]: 0.595
HAND2 expression R*: Ratio to control [12]: 1.971 times
HAND2 expression log2 [ratio] [12]: 0.979
BBC3 expression R*: Ratio to control [13]: 0.315 times
BBC3 expression log2 [ratio] [13]: −1.566
PYCRL gene expression, R* ratio to control [14]: 1.441 times
PYCRL gene expression, log2 [ratio] [14]: 0.527
BIK expression R*: Ratio to control [15]: 0.298 times
BIK expression log2 [ratio] [15]: −1.743
CSF1 gene expression, R* ratio to control [16]: 0.593 times
CSF1 gene expression, log2 [ratio] [16]: −0.753
CEBPB expression R*: Ratio to control [17]: 0,383 times
CEBPB expression log2 [ratio] [17]: −1.385
AOC3 gene expression, R* ratio to control [18]: 1.540 times
AOC3 gene expression, log2 [ratio] [18]: 0.623
GL12 expression R*: Ratio to control [19]: 2.060 times
GL12 expression log2 [ratio] [19]: 1.043
TRIM35 expression R*: Ratio to control [20]: 0.618 times
TRIM35 expression log2 [ratio] [20]: −0.695
CASP10 expression R*: Ratio to control [21]: 0.552 times
CASP10 expression log2 [ratio] [21]: −0.857
E124 expression R*: Ratio to control [22]: 0.652 times
E124 expression log2 [ratio] [22]: −0.618
VEGFA gene expression, R* ratio to control [23]: 0.540 times
VEGFA gene expression, log2 [ratio] [23]: −0.889
ASPH gene expression, R* ratio to control [24]: 1.560 times
ASPH gene expression, log2 [ratio] [24]: 0.642
MYC expression R*: Ratio to control [25]: 1.686 times
MYC expression log2 [ratio] [25]: 0.754
BMP1 gene expression, R* ratio to control [26]: 0.613 times
BMP1 gene expression, log2 [ratio] [26]: −0.706
NLRP1 expression R*: Ratio to control [27]: 0.558 times
NLRP1 expression log2 [ratio] [27]: −0.841
BCL2L11 expression R*: Ratio to control [28]: 0.636 times
BCL2L11 expression log2 [ratio] [28]: −0.652
NRP1 expression R*: Ratio to control [29]: 1.664 times
NRP1 expression log2 [ratio] [29]: 0.735
COL8A1 expression R*: Ratio to control [30]: 1.703 times
COL8A1 expression log2 [ratio] [30]: 0.768
CASP10 expression R*: Ratio to control [31]: 0.609 times
CASP10 expression log2 [ratio] [31]: −0.716
TXN gene expression, R* ratio to control [32]: 1.438 times
TXN gene expression, log2 [ratio] [32]: 0.524
VEGFA gene expression, R* ratio to control [33]: 0.650 times
VEGFA gene expression, log2 [ratio] [33]: −0.621
MAPRE2 expression R*: Ratio to control [34]: 1.666 times
MAPRE2 expression log2 [ratio] [34]: 0.736
STEAP3 gene expression, R* ratio to control [35]: 2.009 times
STEAP3 gene expression, log2 [ratio] [35]: 1.007
DEDD2 expression R*: Ratio to control [36]: 0.597 times
DEDD2 expression log2 [ratio] [36]: −0.744
IL5 gene expression, R* ratio to control [37]: 0.304 times
IL5 gene expression, log2 [ratio] [37]: −1.719
